Consider 33 compounds from patent publication US7495104B2, “Quinoline or quinazoline derivatives inhibiting auto-phosphorylation of fibroblast growth factor receptors” (Kirin Beer Kabushiki Kaisha, priority 2001, dated 2009).

Chain of Bek (P21802 431-767 limits assumed): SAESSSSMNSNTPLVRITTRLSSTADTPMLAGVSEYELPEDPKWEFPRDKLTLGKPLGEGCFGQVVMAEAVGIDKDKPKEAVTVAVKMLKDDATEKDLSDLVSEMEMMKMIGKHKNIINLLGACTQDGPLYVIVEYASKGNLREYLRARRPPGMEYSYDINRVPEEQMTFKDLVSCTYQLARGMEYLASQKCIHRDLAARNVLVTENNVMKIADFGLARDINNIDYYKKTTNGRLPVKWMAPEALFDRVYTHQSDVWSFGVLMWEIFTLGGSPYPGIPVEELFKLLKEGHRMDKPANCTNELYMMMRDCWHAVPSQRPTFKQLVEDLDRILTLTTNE

For the experiment, the target named is Bek (Homo sapiens, UniProt P21802). The experiment is described as follows: Inhibitory activity against Bek-autophosphorylation using ELISA method in OCUM-2MD3 cells. It counts as cell-based. The settings on record: 1 hr with compound, read-out: IC50 (concentration necessary for inhibiting 50% of Bek-phosphorylation). In short, it runs like this:
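OCUM-2MD3 human scirrhous gastric cancer cells in 0.1% FCS were exposed to compound for 1 hr at 37° C, then lysed. Phospho-tyrosine proteins were captured with anti-phosphotyrosine antibody, probed with anti-Bek antibody and peroxidase read-out (A450). Positive control (1000 nM) set 0%, untreated 100%; IC50 from multi-level dilutions.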
Turning to `COc1cc2c(Oc3ccc(NC(=O)NCCC(C)(C)C)cc3)ccnc2cc1OCC(O)CN1CC(C)CC(C)C1` (stereo not drawn) [Compound 251, 1-(3,3-Dimethyl-butyl)-3-(4-{7-[3-(3,5-dimethyl-piperidin-1-yl)-2-hydroxy-propoxy]-6-methoxy-quinolin-4-yloxy}-phenyl)-urea], the IC50 worked out at 20.7 nM. For `COc1cc2c(Oc3ccc(Nc4ccc(C(C)(C)C)cc4)cc3)ccnc2cc1OCCN1CCC(O)CC1` [Compound 82, 1-(2-{4-[4-(4-Tert-butylphenylamino)phenoxy]-6-methoxy-quinolin-7-yloxy}ethyl)piperidin-4-ol], the IC50 worked out at 70.1 nM. Consider `COc1cc2nccc(Oc3ccc(NC(=O)NC4CC(C)CC(C)(C)C4)c(Cl)c3)c2cc1OC` (stereo not drawn) [Compound 107, 1-[2-Chloro-4-(6,7-dimethoxy-quinolin-4-yloxy)-phenyl]-3-(3,3,5-trimethyl-cyclohexyl)-urea], for which the IC50 is under 10 nM. `COc1cc2c(Oc3ccc(Nc4ccc(C(C)(C)C)cc4)cc3Cl)ccnc2cc1OCCCN1CCC(CCO)CC1` [Compound 314, 2-[1-(3-{4-[4-(4-Tert-butyl-phenylamino)-2-chloro-phenoxy]-6-methoxy-quinolin-7-yloxy}-propyl)-piperidin-4-yl]-ethanol]: the IC50 is 277 nM.

On to `COc1cc2c(Oc3ccc(NC(=O)NCCC(C)(C)C)cc3)ccnc2cc1OCC(O)CN1CCC(c2ccccc2)CC1` (stereo not drawn) [Compound 252, 1-(3,3-Dimethyl-butyl)-3-(4-{7-[2-hydroxy-3-(4-phenyl-piperidin-1-yl)-propoxy]-6-methoxy-quinolin-4-yloxy}-phenyl)-urea], for which the IC50 worked out at 42.6 nM. Consider `COc1cc2nccc(Oc3ccc(Nc4ccc(C(C)(C)C)cc4)cc3)c2cc1OCCNCCO` [Compound 356, 2-(2-{4-[4-(4-Tert-butyl-phenylamino)-phenoxy]-7-methoxy-quinolin-6-yloxy}-ethylamino)-ethanol], for which the IC50 was 347 nM.

As for `COc1cc2c(Oc3ccc(Nc4ccc(C(C)(C)C)cc4)cc3)ccnc2cc1O` [Compound 21, 4-[4-(4-Tert-butylphenylamino)phenoxy]-6-methoxy-quinolin-7-ol], the IC50 was determined as 328 nM. The result for `COc1cc2c(Oc3ccc(NC(=O)NCCC(C)(C)C)c(Cl)c3)ccnc2cc1OCC(O)CN(C)C` (stereo not drawn) [Compound 199, 1-{2-Chloro-4-[7-(3-dimethylamino-2-hydroxy-propoxy)-6-methoxy-quinolin-4-yloxy]-phenyl}-3-(3,3-dimethyl-butyl)-urea] reads under 10 nM; that for `COc1cc2c(Oc3ccc(Nc4ccc(C(C)(C)C)cc4)cc3)ccnc2cc1OC[C@@H](O)CN1CCOCC1` [Compound 71, (s)-1-{4-[4-(4-Tert-butylphenylamino)phenoxy]-6-methoxyquinolin-7-yloxy}-3-morpholin-4-ylpropan-2-ol], 61.1 nM; that for `COc1cc2c(Oc3ccc(Nc4ccc(C(C)(C)C)cc4)cc3)ccnc2cc1OCCCCl` [Compound 23, (4-Tert-butylphenyl)-{4-[7-(3-chloropropoxy)-6-methoxyquinolin-4-yloxy]phenyl}amine], 762 nM. For `COc1cc2c(Oc3ccc(NC(=O)NCCC(C)(C)C)cc3)ccnc2cc1OCCCCBr` [Compound 148, 1-{4-[7-(4-Bromo-butoxy)-6-methoxy-quinolin-4-yloxy]-phenyl}-3-(3,3-dimethyl-butyl)-urea] the value was 1670 nM; for `COc1cc2c(Oc3ccc(NC(=O)NCCC(C)(C)C)cc3)ccnc2cc1OCCN(CCO)C1CCCCC1` [Compound 362, 1-[4-(7-{2-[Cyclohexyl-(2-hydroxy-ethyl)-amino]-ethoxy}-6-methoxy-quinolin-4-yloxy)-phenyl]-3-(3,3-dimethyl-butyl)-urea], 49.2 nM.

As to `COc1cc2c(Oc3ccc(Nc4ccc(C(C)(C)C)cc4)cc3)ccnc2cc1OCC(O)CN(C)C` (stereo not drawn) [Compound 67, 1-{4-[4-(4-Tert-butylphenylamino)phenoxy]-6-methoxyquinolin-7-yloxy}-3-dimethylaminopropan-2-ol], the IC50 was 189 nM. For `COc1cc2c(Oc3ccc(NC(=O)NCCC(C)(C)C)cc3F)ccnc2cc1OCCCN1CCC(O)CC1` [Compound 286, 1-(3,3-Dimethyl-butyl)-3-(3-fluoro-4-{7-[3-(4-hydroxy-piperidin-1-yl)-propoxy]-6-methoxy-quinolin-4-yloxy}-phenyl)-urea] the value was 17.2 nM; for `COc1cc2c(Oc3ccc(Nc4ccc(C(C)(C)C)cc4)cc3F)ccnc2cc1OCCCN1CCC(O)CC1` [Compound 273, 1-(3-{4-[4-(4-Tert-butyl-phenylamino)-2-fluoro-phenoxy]-6-methoxy-quinolin-7-yloxy}-propyl)-piperidin-4-ol], 161 nM; for `COc1cc2nccc(Oc3ccc(Nc4ccc(C(C)C)cc4)cc3)c2cc1OC` [Compound 9, [4-(6,7-Dimethoxyquinolin-4-yloxy)phenyl]-(4-isopropylphenyl)-amine], 313 nM. Take `COc1cc2nccc(Oc3ccc(Nc4ccc(C(C)(C)C)cc4)c(C)c3)c2cc1OC` [Compound 13, (4-Tert-butylphenyl)-[4-(6,7-dimethoxyquinolin-4-yloxy)-2-methylphenyl]amine]: the IC50 turned out to be 279 nM. Take `COc1cc2c(Oc3ccc(NC(=O)NCCC(C)(C)C)cc3F)ccnc2cc1OCCN1CCC(CCO)CC1` [Compound 297, 1-(3,3-Dimethyl-butyl)-3-[3-fluoro-4-(7-{2-[4-(2-hydroxy-ethyl)-piperidin-1-yl]-ethoxy}-6-methoxy-quinolin-4-yloxy)-phenyl]-urea]: the IC50 came to 42.4 nM. Turning to `COc1cc2c(Oc3ccc(Nc4ccc(C(C)(C)C)cc4)cc3)ccnc2cc1OCCCl` [Compound 22, (4-Tert-butylphenyl)-{4-[7-(2-chloroethoxy)-6-methoxyquinolin-4-yloxy]phenyl}amine], the IC50 came to 189 nM. As for `COc1cc2c(Oc3ccc(NC(=O)NCCC(C)(C)C)c(Cl)c3)ccnc2cc1OCCCN1CCCCC1` [Compound 180, 1-{2-Chloro-4-[6-methoxy-7-(3-piperidin-1-yl-propoxy)-quinolin-4-yloxy]-phenyl}-3-(3,3-dimethyl-butyl)-urea], the IC50 stood at 22.7 nM. In the case of `COc1cc2c(Oc3ccc(Nc4ccc(C(C)(C)C)cc4)cc3)ccnc2cc1OCCC(N)=O` [Compound 26, 3-{4-[4-(4-Tert-butylphenylamino)phenoxy]-6-methoxyquinolin-7-yloxy}propionamide], the IC50 was 318 nM. The result for `COc1cc2nccc(Oc3ccc(Nc4ccc(C(C)(C)C)cc4)c(C)c3C)c2cc1OC` [Compound 16, (4-Tert-butylphenyl)-[4-(6,7-dimethoxyquinolin-4-yloxy)-2,3-dimethylphenyl]amine] reads 242 nM; that for `COc1cc2c(Oc3ccc(NC(=O)NCCC(C)(C)C)c(Cl)c3)ccnc2cc1OCCN1CCC(O)CC1` [Compound 274, 1-(2-Chloro-4-{7-[2-(4-hydroxy-piperidin-1-yl)-ethoxy]-6-methoxy-quinolin-4-yloxy}-phenyl)-3-(3,3-dimethyl-butyl)-urea], 27.8 nM; that for `COc1cc2nccc(Oc3ccc(Nc4nc(C)c(C)s4)cc3)c2cc1OC` [Compound 75, [4-(6,7-Dimethoxyquinolin-4-yloxy)phenyl]-(4,5-dimethylthiazol-2-yl)amine], 5190 nM. Regarding `COc1cc2c(Oc3ccc(NC(=O)NCCC(C)(C)C)cc3)ccnc2cc1OCCN1CCC(Cc2ccccc2)CC1` [Compound 122, 1-(4-{7-[2-(4-Benzyl-piperidin-1-yl)-ethoxy]-6-methoxy-quinolin-4-yloxy}-phenyl)-3-(3,3-dimethyl-butyl)-urea], the IC50 was 151 nM. The result for `COc1cc2c(Oc3ccc(Nc4ccc(C(C)(C)C)cc4)cc3)ccnc2cc1OCCN(CCO)Cc1ccccc1` [Compound 365, 2-[Benzyl-(2-{4-[4-(4-tert-butyl-phenylamino)-phenoxy]-6-methoxy-quinolin-7-yloxy}-ethyl)-amino]-ethanol] reads 7130 nM; that for `COc1cc2nccc(Oc3ccc(NC(=O)NC4CCCC(C)(C)C4)cc3)c2cc1OC` (stereo not drawn) [Compound 108, 1-[4-(6,7-Dimethoxy-quinolin-4-yloxy)-phenyl]-3-(3,3-dimethyl-cyclohexyl)-urea], under 10 nM. As for `COc1cc2nccc(Oc3ccc(NC(=O)NCCC(C)(C)C)cc3)c2cc1OCCCN(C)C` [Compound 224, 1-{4-[6-(3-Dimethylamino-propoxy)-7-methoxy-quinolin-4-yloxy]-phenyl}-3-(3,3-dimethyl-butyl)-urea], the IC50 came to 70.4 nM.

For the compound `COc1cc2c(Oc3ccc(NC(=O)NCCC(C)(C)C)cc3)ccnc2cc1OCCN1CCC(O)CC1` [Compound 373, 1-(3,3-Dimethyl-butyl)-3-(4-{7-[2-(4-hydroxy-piperidin-1-yl)-ethoxy]-6-methoxy-quinolin-4-yloxy}-phenyl)-urea], the IC50 is under 10 nM.

With `COc1cc2c(Oc3ccc(Nc4ccc(C(C)(C)C)cc4)cc3Cl)ccnc2cc1OCCN1CCC(CO)CC1` [Compound 308, [1-(2-{4-[4-(4-Tert-butyl-phenylamino)-2-chloro-phenoxy]-6-methoxy-quinolin-7-yloxy}-ethyl)-piperidin-4-yl]-methanol], the IC50 is 204 nM.

As to `COc1cc2c(Oc3ccc(NC(=O)NCCC(C)(C)C)cc3)ccnc2cc1OCCN(CCO)C(C)C` [Compound 370, 1-(3,3-Dimethyl-butyl)-3-[4-(7-{2-[(2-hydroxy-ethyl)-isopropyl-amino]-ethoxy}-6-methoxy-quinolin-4-yloxy)-phenyl]-urea], the IC50 turned out to be 130 nM. As to `COc1cc2c(Oc3ccc(NC(=O)NCCC(C)(C)C)cc3F)ccnc2cc1OCCN1C(C)CCCC1C` (stereo not drawn) [Compound 132, 1-(3,3-Dimethyl-butyl)-3-(4-{7-[2-(2,6-dimethyl-piperidin-1-yl)-ethoxy]-6-methoxy-quinolin-4-yloxy}-3-fluoro-phenyl)-urea], the IC50 worked out at 146 nM.

Take `COc1cc2c(Oc3ccc(NC(=O)NCCC(C)(C)C)c(Cl)c3)ccnc2cc1OCCN1CCC(CCO)CC1` [Compound 292, 1-[2-Chloro-4-(7-{2-[4-(2-hydroxy-ethyl)-piperidin-1-yl]-ethoxy}-6-methoxy-quinolin-4-yloxy)-phenyl]-3-(3,3-dimethyl-butyl)-urea]: the IC50 came to 49.6 nM.
